Data set [1] concerns Staphylococcus aureus. The data set can be described thus: Antimicrobial activity against Staphylococcus aureus ATCC 29213 up to 80 uM. Format: functional, organism-based.
Data set [2] has as its system Amphibalanus improvisus. The data set can be described thus: Toxicity against Balanus improvisus barnacle larvae assessed as number of dead larvae at 0.06 to 6 uM incubated for 24 hrs. It counts as organism-based. Particulars: in vivo.
The test system of data set [3] is Amphibalanus improvisus. In words: Anti-fouling activity against Balanus improvisus barnacle larvae assessed as settlement propensity at 6 uM incubated for 4 days (reference value: 64 +/- 8%). Format: functional.
Data set [4] concerns Escherichia coli. The data set can be described thus: Antimicrobial activity against Escherichia coli ATCC 25922 up to 80 uM. It counts as functional, organism-based.
The subject of data set [5] is Amphibalanus improvisus. In words: Anti-fouling activity against Balanus improvisus barnacle larvae assessed as inhibition of settlement propensity at 6 uM incubated for 4 days. It counts as functional, organism-based.
Data set [6] deals with Amphibalanus improvisus. In words: Anti-fouling activity against Balanus improvisus barnacle larvae assessed as inhibition of settlement propensity at 0.6 uM incubated for 4 days. Format: functional, organism-based.
In data set [7] the test system is Escherichia coli. In words: Antimicrobial activity against Escherichia coli ATCC 25922. Format: functional.
In data set [8] the test system is Staphylococcus aureus. In words: Antimicrobial activity against Staphylococcus aureus ATCC 29213. Format: functional.

Each structure is given as a SMILES string. Converted amounts (≈) assume the structure as drawn. The source made the active and inactive calls. The rule behind the calls is not given here. Peptide text beside a SMILES is read from it.

In ChEMBL document CHEMBL3593201, “Isolation, Characterization, and Synthesis of the Barrettides: Disulfide-Containing Peptides from the Marine Sponge Geodia barretti” (J Nat Prod, 2015) one finds Activity, inhibition and MIC data, which are given here for three compounds.

As to `[H][C@@]12CCCN1C(=O)[C@H](CC(C)C)NC(=O)[C@]1([H])CSSC[C@]([H])(NC(=O)[C@H](Cc3ccccc3)NC(=O)[C@@H](NC(=O)[C@@H]3CCCN3C(=O)[C@H](CO)NC(=O)[C@@H](NC(=O)[C@@H](N)CC(=O)O)C(C)C)CSSC[C@@H](C(=O)N[C@@H](CC(=O)O)C(=O)N[C@@H](C)C(=O)N[C@@H](CO)C(=O)N[C@@H](CCCNC(=N)N)C(=O)NCC(=O)N[C@H](C(=O)N[C@@H](CC(N)=O)C(=O)N3CCC[C@H]3C(=O)O)[C@@H](C)O)NC(=O)[C@H](CC(N)=O)NC(=O)[C@H](CC(=O)O)NC2=O)C(=O)N[C@@H](C(C)C)C(=O)N[C@@H](CCC(=O)O)C(=O)N[C@@H](CC(=O)O)C(=O)N[C@@H](CCC(=O)O)C(=O)N[C@@]([H])([C@@H](C)O)C(=O)N[C@@H](CO)C(=O)NCC(=O)N[C@@H](C)C(=O)N[C@@H](CCCCN)C(=O)N[C@@]([H])([C@@H](C)O)C(=O)N1` (HELM PEPTIDE1{D.V.S.P.C.F.C.V.E.D.E.T.S.G.A.K.T.C.L.P.D.N.C.D.A.S.R.G.T.N.P}$PEPTIDE1,PEPTIDE1,5:R3-23:R3|PEPTIDE1,PEPTIDE1,7:R3-18:R3$$$V2.0), the outcome in data set [1] and in data set [4] was inactive. The Activity entry is listed as “Non-toxic” in data set [2] and 8% in data set [3]. The inhibition result in data set [5] was “Active”.
For the compound `[H][C@@]12CCCN1C(=O)[C@H](C(C)C)NC(=O)[C@]1([H])CSSC[C@]([H])(NC(=O)[C@H](Cc3ccccc3)NC(=O)[C@@H](NC(=O)[C@@H]3CCCN3C(=O)[C@H](CO)NC(=O)[C@@H](NC(=O)[C@@H](N)CC(=O)O)C(C)C)CSSC[C@@H](C(=O)N[C@@H](CC(=O)O)C(=O)N[C@@H](C)C(=O)N[C@@H](CO)C(=O)N[C@@H](CCCNC(=N)N)C(=O)NCC(=O)N[C@H](C(=O)N[C@@H](CC(N)=O)C(=O)N3CCC[C@H]3C(=O)O)[C@@H](C)O)NC(=O)[C@H](CC(N)=O)NC(=O)[C@H](CC(=O)O)NC2=O)C(=O)N[C@@H](C(C)C)C(=O)N[C@@H](CCC(=O)O)C(=O)N[C@@H](CC(=O)O)C(=O)N[C@@H](CCC(=O)O)C(=O)N[C@@]([H])([C@@H](C)O)C(=O)N[C@@H](CO)C(=O)NCC(=O)N[C@@H](C)C(=O)N[C@@H](CCCCN)C(=O)N[C@@]([H])([C@@H](C)O)C(=O)N1` (HELM PEPTIDE1{D.V.S.P.C.F.C.V.E.D.E.T.S.G.A.K.T.C.V.P.D.N.C.D.A.S.R.G.T.N.P}$PEPTIDE1,PEPTIDE1,5:R3-23:R3|PEPTIDE1,PEPTIDE1,7:R3-18:R3$$$V2.0), the outcome in data set [1] and in data set [4] was inactive. The Activity entry in data set [2] is “Non-toxic”; in data set [3], 15%. Also, the inhibition result in data set [6] and in data set [5] was “Active” in each case.
As for `CC[C@H](C)[C@H](NC(=O)[C@H](CCCCN)NC(=O)[C@H](CCC(=O)O)NC(=O)[C@H](CCCCN)NC(=O)[C@H](CO)NC(=O)[C@H](CCCCN)NC(=O)[C@H](CCCNC(=N)N)NC(=O)[C@H](Cc1ccccc1)NC(=O)[C@H](Cc1ccccc1)NC(=O)[C@H](CC(=O)O)NC(=O)CNC(=O)[C@H](CC(C)C)NC(=O)[C@@H](N)CC(C)C)C(=O)NCC(=O)N[C@@H](CCCCN)C(=O)N[C@@H](CCC(=O)O)C(=O)N[C@@H](Cc1ccccc1)C(=O)N[C@@H](CCCCN)C(=O)N[C@@H](CCCNC(=N)N)C(=O)N[C@H](C(=O)N[C@H](C(=O)N[C@@H](CCC(N)=O)C(=O)N[C@@H](CCCNC(=N)N)C(=O)N[C@H](C(=O)N[C@@H](CCCCN)C(=O)N[C@@H](CC(=O)O)C(=O)N[C@@H](Cc1ccccc1)C(=O)N[C@@H](CC(C)C)C(=O)N[C@@H](CCCNC(=N)N)C(=O)N[C@@H](CC(N)=O)C(=O)N[C@@H](CC(C)C)C(=O)N[C@H](C(=O)N1CCC[C@H]1C(=O)N[C@@H](CCCNC(=N)N)C(=O)N[C@H](C(=O)N[C@@H](CCC(=O)O)C(=O)N[C@@H](CO)C(=O)O)[C@@H](C)O)C(C)C)[C@@H](C)CC)C(C)C)[C@@H](C)CC` [CATHELICIDIN], the MIC in data set [7] and in data set [8] was 1 µM (≈ 4.49 µg/mL) each time.
